The values below come from patent US10758534B2 (Vertex Pharmaceuticals Incorporated, priority 2014, dated 2020).

The assay deals with T1, F508del (Homo sapiens, UniProt P13569, DEL508-508).
T1 construct: expressed in transfected cells
T1 sequence (P13569 with tags, fused parts or gaps DEL508-508): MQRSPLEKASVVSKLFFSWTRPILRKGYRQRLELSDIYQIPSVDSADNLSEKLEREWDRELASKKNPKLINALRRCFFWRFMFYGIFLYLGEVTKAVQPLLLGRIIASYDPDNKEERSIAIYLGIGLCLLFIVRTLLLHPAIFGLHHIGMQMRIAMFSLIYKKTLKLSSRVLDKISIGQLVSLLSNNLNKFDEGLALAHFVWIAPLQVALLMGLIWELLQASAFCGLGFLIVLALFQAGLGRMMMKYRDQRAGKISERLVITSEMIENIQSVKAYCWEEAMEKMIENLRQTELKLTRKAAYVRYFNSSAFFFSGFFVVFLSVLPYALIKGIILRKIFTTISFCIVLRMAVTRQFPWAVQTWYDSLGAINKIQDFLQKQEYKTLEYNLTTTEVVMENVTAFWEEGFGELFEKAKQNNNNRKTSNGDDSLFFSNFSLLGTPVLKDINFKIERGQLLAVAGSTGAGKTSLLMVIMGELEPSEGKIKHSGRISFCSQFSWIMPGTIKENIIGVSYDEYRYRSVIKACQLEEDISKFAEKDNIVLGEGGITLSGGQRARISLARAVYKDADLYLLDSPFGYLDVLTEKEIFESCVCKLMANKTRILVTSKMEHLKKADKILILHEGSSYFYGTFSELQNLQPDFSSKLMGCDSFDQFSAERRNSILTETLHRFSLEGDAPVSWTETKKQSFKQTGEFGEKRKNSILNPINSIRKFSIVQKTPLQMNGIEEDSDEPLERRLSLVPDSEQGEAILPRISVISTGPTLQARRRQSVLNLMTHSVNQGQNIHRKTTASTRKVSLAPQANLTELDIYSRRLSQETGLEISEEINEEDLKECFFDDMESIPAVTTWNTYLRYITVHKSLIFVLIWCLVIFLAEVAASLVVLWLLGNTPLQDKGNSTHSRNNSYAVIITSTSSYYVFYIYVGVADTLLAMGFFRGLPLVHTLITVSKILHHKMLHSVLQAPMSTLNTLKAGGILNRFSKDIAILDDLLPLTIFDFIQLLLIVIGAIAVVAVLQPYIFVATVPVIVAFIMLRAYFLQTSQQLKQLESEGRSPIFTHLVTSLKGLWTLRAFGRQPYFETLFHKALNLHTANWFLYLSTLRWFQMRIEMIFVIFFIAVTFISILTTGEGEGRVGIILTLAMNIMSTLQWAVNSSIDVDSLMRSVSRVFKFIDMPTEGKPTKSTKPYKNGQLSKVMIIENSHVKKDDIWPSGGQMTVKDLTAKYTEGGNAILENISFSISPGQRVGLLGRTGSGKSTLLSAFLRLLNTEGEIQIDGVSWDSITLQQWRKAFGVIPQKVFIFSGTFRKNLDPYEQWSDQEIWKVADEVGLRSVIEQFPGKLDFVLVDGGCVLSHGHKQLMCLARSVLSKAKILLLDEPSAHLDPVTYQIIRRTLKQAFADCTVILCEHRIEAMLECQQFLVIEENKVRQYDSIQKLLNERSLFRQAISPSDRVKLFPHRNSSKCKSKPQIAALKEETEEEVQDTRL
The assay can be described thus: Protocol 1: membrane potential optical assay (FLIPR III, voltage sensing dye), identification of potentiator compounds. The class given is cell-based. Conditions: Table 3, compounds of Table 1. In a few lines:
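NIH 3T3 fibroblasts stably expressing F508del were cultured at 27° C for 24 hrs for temperature correction, then treated with compounds or DMSO and loaded with a voltage-sensing redistribution dye. Forskolin added with a Cl⁻ gradient activated the channel; membrane-potential fluorescence on FLIPR III reported increased gating.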
Consider `Cc1cc(C)c(Oc2nc(-c3cccc(F)c3F)ccc2C(=O)NS(=O)(=O)c2cccc(N)n2)c(C)c1` [Compound 1244, N-[(6-amino-2-pyridyl)sulfonyl]-6-(2,3-difluorophenyl)-2-(2,4,6-trimethylphenoxy)pyridine-3-carboxamide], for which the EC30 result is recorded as “+++ (“+++” means <3 uM)”.
Regarding `CC(C)CCOc1cccc(-c2cnc(N3CC(C)CC3(C)C)c(C(=O)NS(=O)(=O)c3cccc(N)n3)c2)c1` (stereo not shown) [Compound 1894, N-[(6-amino-2-pyridyl)sulfonyl]-5-(3-isopentyloxyphenyl)-2-(2,2,4-trimethylpyrrolidin-1-yl)pyridine-3-carboxamide], the EC30 entry is “+++ (“+++” means <3 uM)”.
As for `CC(C)COc1cc(F)cc(-c2ccc(C(=O)NS(=O)(=O)c3cccc(N)n3)c(OC3CC(F)(F)C3)n2)c1` [Compound 1458], the entry is “+++ (“+++” means <3 uM)”; as for `CC(C)COc1cc(F)cc(-c2ccc(C(=O)NS(=O)(=O)c3cccc(N)n3)c(OC3CCCCCC3)n2)c1` [Compound 1263, N-[(6-amino-2-pyridyl)sulfonyl]-2-(cycloheptoxy)-6-(3-fluoro-5-isobutoxy-phenyl)pyridine-3-carboxamide], “+++ (“+++” means <3 uM)”; as for `COc1ncc(-c2ccc(C(=O)NS(=O)(=O)c3nccnc3N)c(Oc3c(C)cc(C)cc3C)n2)cc1C` [Compound 1249, N-(3-aminopyrazin-2-yl)sulfonyl-6-(6-methoxy-5-methyl-3-pyridyl)-2-(2,4,6-trimethylphenoxy)pyridine-3-carboxamide], “+++ (“+++” means <3 uM)”.
With `COC[C@H]1C[C@@H]1c1ccc(C(=O)NS(=O)(=O)c2cccc(N)n2)c(N2C[C@@H](C)CC2(C)C)n1` [Compound 1575, N-[(6-amino-2-pyridyl)sulfonyl]-6-[(1S,2S)-2-(methoxymethyl)cyclopropyl]-2-[(4S)-2,2,4-trimethylpyrrolidin-1-yl]pyridine-3-carboxamide] the entry was “++ (“++” means between 3 uM and 10 uM)”; with `Cc1cc(C)c(Oc2nc(-c3cc(F)cc(F)c3)ccc2C(=O)NS(=O)(=O)c2cccc(N)n2)c(C)c1` [Compound 1325, N-[(6-amino-2-pyridyl)sulfonyl]-6-(3,5-difluorophenyl)-2-(2,4,6-trimethylphenoxy)pyridine-3-carboxamide], “+++ (“+++” means <3 uM)”; with `CC(C)Oc1ccc(-c2ccc(C(=O)NS(=O)(=O)c3cccc(N)n3)c(N3CCC(F)CC3)n2)cn1` [Compound 913, N-[(6-amino-2-pyridyl)sulfonyl]-2-(4-fluoro-1-piperidyl)-6-(6-isopropoxy-3-pyridyl)pyridine-3-carboxamide], “++ (“++” means between 3 uM and 10 uM)”.
With `CCOc1cc(-c2ccc(C(=O)NS(=O)(=O)c3cccc(N)n3)c(N3C[C@@H](C)CC3(C)C)n2)cc(C)c1C` [Compound 1931, N-[(6-amino-2-pyridyl)sulfonyl]-6-(3-ethoxy-4,5-dimethyl-phenyl)-2-[(4S)-2,2,4-trimethylpyrrolidin-1-yl]pyridine-3-carboxamide] the entry was “+++ (“+++” means <3 uM)”; with `CC(C)COc1cc(F)cc(-c2ccc(C(=O)NS(=O)(=O)c3cccc(N)n3)c(OC(C)CC3CCOCC3)n2)c1` (stereo not shown) [Compound 1361, N-[(6-amino-2-pyridyl)sulfonyl]-6-(3-fluoro-5-isobutoxy-phenyl)-2-(1-methyl-2-tetrahydropyran-4-yl-ethoxy)pyridine-3-carboxamide], “+++ (“+++” means <3 uM)”.
As for `C[C@@H]1CC[C@H](C)N1c1nc(-c2cc(F)cc(OCC3CCC3)c2)ccc1C(=O)NS(=O)(=O)c1ccc[nH]c1=O` [Compound 922, 6-[3-(cyclobutylmethoxy)-5-fluoro-phenyl]-2-[(2S,5R)-2,5-dimethylpyrrolidin-1-yl]-N-[(2-oxo-1H-pyridin-3-yl)sulfonyl]pyridine-3-carboxamide], the EC30 result is listed as “+++ (“+++” means <3 uM)”.
As for `CCOc1cccc2c1CN(Cc1cc(F)cc(OCC(C)C)c1)C2(C)C(=O)NS(=O)(=O)c1cccc(N)n1` (stereo not shown) [Compound 1681, N-[(6-amino-2-pyridyl)sulfonyl]-4-ethoxy-2-[(3-fluoro-5-isobutoxy-phenyl)methyl]-1-methyl-isoindoline-1-carboxamide], the EC30 entry is “+++ (“+++” means <3 uM)”.
Regarding `Cc1cccc(C)c1Cn1nc(-c2ccc3c(c2)OCOC3)cc1C(=O)NS(=O)(=O)c1ccccc1` [Compound 1621, N-(benzenesulfonyl)-5-(4H-1,3-benzodioxin-7-yl)-2-[(2,6-dimethylphenyl)methyl]pyrazole-3-carboxamide], the EC30 result is on record as “+++ (“+++” means <3 uM)”.
As for `CCOC1CCN(c2nc(-c3cc(F)cc(OCC(C)C)c3)ccc2C(=O)NS(=O)(=O)c2ccn[nH]2)CC1` [Compound 1155, 2-(4-ethoxy-1-piperidyl)-6-(3-fluoro-5-isobutoxy-phenyl)-N-(1H-pyrazol-5-ylsulfonyl)pyridine-3-carboxamide], the EC30 entry was “++ (“++” means between 3 uM and 10 uM)”.
As for `COc1cc(F)ccc1-c1ccc(C(=O)NS(=O)(=O)c2cccc(N)n2)c(Oc2c(C)cc(C)cc2C)n1` [Compound 830, N-[(6-amino-2-pyridyl)sulfonyl]-6-(4-fluoro-2-methoxy-phenyl)-2-(2,4,6-trimethylphenoxy)pyridine-3-carboxamide], the entry is “+++ (“+++” means <3 uM)”.
With `Cc1cc(C)c(Oc2nc3c(cc2C(=O)NS(=O)(=O)c2nccnc2N)CCCC3(C)C)c(C)c1` [Compound 1223, N-(3-aminopyrazin-2-yl)sulfonyl-8,8-dimethyl-2-(2,4,6-trimethylphenoxy)-6,7-dihydro-5H-quinoline-3-carboxamide] the entry was “+++ (“+++” means <3 uM)”; with `CCC/C=C/c1cc(C(=O)NS(=O)(=O)c2cccc(N)n2)c(N2C[C@@H](C)CC2(C)C)nc1C(C)(C)C` [Compound 1617, N-[(6-amino-2-pyridyl)sulfonyl]-6-tert-butyl-5-[(E)-pent-1-enyl]-2-[(4S)-2,2,4-trimethylpyrrolidin-1-yl]pyridine-3-carboxamide], “+++ (“+++” means <3 uM)”; with `CC(C)COc1cc(F)cc(-c2ccc(C(=O)NS(=O)(=O)c3cccc(N)n3)c(N3CCOCC3(C)C)n2)c1` [Compound 1267, N-[(6-amino-2-pyridyl)sulfonyl]-2-(3,3-dimethylmorpholin-4-yl)-6-(3-fluoro-5-isobutoxy-phenyl)pyridine-3-carboxamide], “+++ (“+++” means <3 uM)”.
As for `C[C@@H]1CN(c2nc(-c3ccccc3)ccc2C(=O)NS(=O)(=O)N2CC[C@H](N)C2)C(C)(C)C1` [Compound 1725, N-[(3S)-3-aminopyrrolidin-1-yl]sulfonyl-6-phenyl-2-[(4S)-2,2,4-trimethylpyrrolidin-1-yl]pyridine-3-carboxamide], the entry is “++ (“++” means between 3 uM and 10 uM)”.
Regarding `Cc1ccc(-c2ccc(C(=O)NS(=O)(=O)c3nccnc3N)c(NCC3(C)CCOCC3)n2)cc1` [Compound 1066, N-(3-aminopyrazin-2-yl)sulfonyl-2-[(4-methyltetrahydropyran-4-yl)methylamino]-6-(p-tolyl)pyridine-3-carboxamide], the EC30 result was “++ (“++” means between 3 uM and 10 uM)”.
Turning to `CC(C)COc1cc(F)cc(-c2ccc(C(=O)NS(=O)(=O)c3cccc(N)n3)c(OCC3(C)CC3)n2)c1` [Compound 1668, N-[(6-amino-2-pyridyl)sulfonyl]-6-(3-fluoro-5-isobutoxy-phenyl)-2-[(1-methylcyclopropyl)methoxy]pyridine-3-carboxamide], the EC30 entry is reported as “+++ (“+++” means <3 uM)”.
With `CC(C)COc1cc(F)cc(-c2ccc(C(=O)NS(=O)(=O)c3cccc(N)n3)c(OCCCCc3ccccc3)n2)c1` [Compound 1686, N-[(6-amino-2-pyridyl)sulfonyl]-6-(3-fluoro-5-isobutoxy-phenyl)-2-(4-phenylbutoxy)pyridine-3-carboxamide] the entry was “+++ (“+++” means <3 uM)”.
As to `CC(C)COc1cc(F)cc(-c2ccc(C(=O)NS(=O)(=O)c3cccc(N)n3)c(N3CC(C)CCC3C)n2)c1` (single isomer, unassigned) [Compound 1993, N-[(6-amino-2-pyridyl)sulfonyl]-2-(2,5-dimethyl-1-piperidyl)-6-(3-fluoro-5-isobutoxy-phenyl)pyridine-3-carboxamide], the EC30 entry is listed as “+++ (“+++” means <3 uM)”.
With `Cc1ccc(-c2nc(-c3cc(F)cc(OC(C)C)c3)ccc2C(=O)NS(=O)(=O)c2nccnc2N)cc1` [Compound 1351, N-(3-aminopyrazin-2-yl)sulfonyl-6-(3-fluoro-5-isopropoxy-phenyl)-2-(p-tolyl)pyridine-3-carboxamide] the entry was “++ (“++” means between 3 uM and 10 uM)”; with `CCOc1cccc2c1CN(Cc1c(C)cc(C)cc1C)C2(C)C(=O)NS(=O)(=O)c1ncccc1O` (stereo not shown) [Compound 1642, 4-ethoxy-N-[(3-hydroxy-2-pyridyl)sulfonyl]-1-methyl-2-[(2,4,6-trimethylphenyl)methyl]isoindoline-1-carboxamide], “+++ (“+++” means <3 uM)”.
As for `Cc1cc(C)c(Oc2nc(-c3ccc(OCC4CC4)cc3)ccc2C(=O)NS(=O)(=O)c2ccc[nH]c2=O)c(C)c1` [Compound 1007, 6-[4-(cyclopropylmethoxy)phenyl]-N-[(2-oxo-1H-pyridin-3-yl)sulfonyl]-2-(2,4,6-trimethylphenoxy)pyridine-3-carboxamide], the entry is “+++ (“+++” means <3 uM)”; as for `CC(C)CCOc1ccc(-c2ccc(C(=O)NS(=O)(=O)c3cccc(N)n3)c(N3CC(C)CC3(C)C)n2)cn1` (stereo not shown) [Compound 848, N-[(6-amino-2-pyridyl)sulfonyl]-6-(6-isopentyloxy-3-pyridyl)-2-(2,2,4-trimethylpyrrolidin-1-yl)pyridine-3-carboxamide], “+++ (“+++” means <3 uM)”; as for `CCCc1ccc2c(c1)cc(C(=O)NS(=O)(=O)c1cccc(N)n1)n2Cc1c(C)cc(C)cc1C` [Compound 1158, N-[(6-amino-2-pyridyl)sulfonyl]-5-propyl-1-[(2,4,6-trimethylphenyl)methyl]indole-2-carboxamide], “+++ (“+++” means <3 uM)”.
